The experiment concerns the target T1, SsC4H (Sparganium stoloniferum, UniProt A0AAU8GF87).
T1 construct: gene C4H; pYeDP60 in yeast WAT11 culture, not purified
The experiment in a line: substrate feeding of yeast culture, LC-MS/MS of p-coumaric acid. The class given is cell-based. To be noted: 0.5 mM substrate, 16 °C, 12 h; yeast WAT11.

T1 sequence (A0AAU8GF87 entry or part of it): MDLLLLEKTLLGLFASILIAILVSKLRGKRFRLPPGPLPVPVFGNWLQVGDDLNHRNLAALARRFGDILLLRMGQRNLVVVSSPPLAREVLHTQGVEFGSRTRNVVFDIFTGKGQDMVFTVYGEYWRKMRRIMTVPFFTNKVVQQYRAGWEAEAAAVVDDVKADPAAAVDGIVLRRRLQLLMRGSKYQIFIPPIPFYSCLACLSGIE

For the compound `O=C(O)/C=C/c1ccccc1` [trans-cinnamic acid], the “substrate feeding of yeast culture, LC-MS/MS of p-coumaric acid” value is “Upon adding trans-cinnamic acid to the SsC4H-pYeDP60-WAT11 culture, hydroxylation occurred to produce p-coumaric acid”.

For the origin of these results see article PMC11203919, “Heat Stress and Microbial Stress Induced Defensive Phenol Accumulation in Medicinal Plant Sparganium stoloniferum” (International Journal of Molecular Sciences, 2024).
